Target: T1, KDM5A (Homo sapiens, UniProt P29375)
T1 construct: Full length recombinant Flag tagged KDM5A protein was purified from Sf9 insect cells; Flag; made in house; host or cells: Sf9 insect cells
Assay: KDM5A Demethylase Assay (TR-FRET Assay-B)
Assay type: biochemical
Conditions: full length recombinant Flag tagged KDM5A, 2 nM, TrisCl pH 7.4, 3.0 μM α-ketoglutarate, read-out: B KDM5A HTRF (IC50)
Description: Full length recombinant Flag tagged KDM5A protein was purified from Sf9 insect cells. The demethylation reaction buffer contained 50 mM TrisCl pH 7.4, 0.01% Triton X-100, 0.025 mg/mL BSA, 1 mM ascorbate, 2 mM TCEP, 3.0 μM α-ketoglutarate, and 50 μM Fe2(NH4)2(SO4)2. […] After a one hour incubation assays were read on a Perkin-Elmer Envision equipped with a laser source and appropriate filters.

T1 sequence (P29375 whole entry): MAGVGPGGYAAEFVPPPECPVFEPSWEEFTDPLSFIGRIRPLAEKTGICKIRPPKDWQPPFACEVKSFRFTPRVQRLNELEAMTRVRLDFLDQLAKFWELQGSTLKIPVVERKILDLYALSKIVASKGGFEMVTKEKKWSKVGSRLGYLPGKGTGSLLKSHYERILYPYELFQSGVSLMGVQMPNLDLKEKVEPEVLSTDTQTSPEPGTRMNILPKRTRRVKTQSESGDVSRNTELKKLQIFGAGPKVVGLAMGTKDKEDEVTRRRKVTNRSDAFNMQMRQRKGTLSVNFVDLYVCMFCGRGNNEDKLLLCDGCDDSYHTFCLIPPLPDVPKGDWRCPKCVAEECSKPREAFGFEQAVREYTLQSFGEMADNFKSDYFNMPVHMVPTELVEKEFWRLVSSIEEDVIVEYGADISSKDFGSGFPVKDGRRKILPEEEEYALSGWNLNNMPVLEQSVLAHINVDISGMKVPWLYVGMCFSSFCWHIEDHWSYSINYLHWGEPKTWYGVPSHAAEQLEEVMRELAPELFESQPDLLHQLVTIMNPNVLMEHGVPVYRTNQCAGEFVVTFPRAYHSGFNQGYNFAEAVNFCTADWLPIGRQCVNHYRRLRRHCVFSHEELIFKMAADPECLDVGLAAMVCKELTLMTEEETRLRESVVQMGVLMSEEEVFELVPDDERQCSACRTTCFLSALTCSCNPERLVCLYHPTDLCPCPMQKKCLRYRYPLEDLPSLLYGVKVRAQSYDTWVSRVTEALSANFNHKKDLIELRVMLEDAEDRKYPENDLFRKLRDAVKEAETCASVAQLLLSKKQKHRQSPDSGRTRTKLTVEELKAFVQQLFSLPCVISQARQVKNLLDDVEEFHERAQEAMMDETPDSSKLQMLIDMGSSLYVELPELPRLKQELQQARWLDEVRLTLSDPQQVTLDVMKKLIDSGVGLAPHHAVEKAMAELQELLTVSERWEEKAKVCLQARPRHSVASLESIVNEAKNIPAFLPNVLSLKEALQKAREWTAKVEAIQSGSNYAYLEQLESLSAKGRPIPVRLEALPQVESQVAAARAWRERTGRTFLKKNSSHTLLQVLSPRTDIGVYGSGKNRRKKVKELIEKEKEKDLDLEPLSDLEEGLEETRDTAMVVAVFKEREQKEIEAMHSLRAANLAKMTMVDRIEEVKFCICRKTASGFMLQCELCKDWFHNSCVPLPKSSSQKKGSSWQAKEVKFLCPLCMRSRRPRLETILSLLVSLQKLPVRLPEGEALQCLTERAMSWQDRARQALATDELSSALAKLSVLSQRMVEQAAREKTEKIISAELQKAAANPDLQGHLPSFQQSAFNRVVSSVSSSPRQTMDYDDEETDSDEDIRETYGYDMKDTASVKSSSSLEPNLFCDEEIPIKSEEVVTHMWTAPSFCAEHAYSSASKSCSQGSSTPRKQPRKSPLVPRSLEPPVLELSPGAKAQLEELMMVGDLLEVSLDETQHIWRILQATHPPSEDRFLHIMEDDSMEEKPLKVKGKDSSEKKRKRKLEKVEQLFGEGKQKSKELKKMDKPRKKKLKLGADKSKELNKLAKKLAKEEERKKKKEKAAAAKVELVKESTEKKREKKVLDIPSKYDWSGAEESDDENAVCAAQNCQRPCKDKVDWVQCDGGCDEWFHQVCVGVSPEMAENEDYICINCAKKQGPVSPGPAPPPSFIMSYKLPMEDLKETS

| IC50 [nM] | Compound |
| --- | --- |
| 16.1 | CCc1c(C)[nH]c2c(-c3cnn(-c4ncc(C)cn4)c3)cnn2c1=O [Example 2, 6-ethyl-5-methyl-3-(1-(5-methylpyrimidin-2-yl)-1H-pyrazol-4-yl)pyrazolo[1,5-a]pyrimidin-7(4H)-one] |
| 158 | CCc1c(C)[nH]c2c(-c3cnn(-c4ccncn4)c3)cnn2c1=O [Example 3, 6-ethyl-5-methyl-3-(1-(pyrimidin-4-yl)-1H-pyrazol-4-yl)pyrazolo[1,5-a]pyrimidin-7(4H)-one] |
| 47 | CCc1c(C)[nH]c2c(-c3cnn(-c4nccc(N(C)C)n4)c3)cnn2c1=O [Example 4, 3-(1-(4-(dimethylamino)pyrimidin-2-yl)-1H-pyrazol-4-yl)-6-ethyl-5-methylpyrazolo[1,5-a]pyrimidin-7(4H)-one] |
| 60.3 | CCc1c(C)[nH]c2c(-c3cnn(-c4ncc(N(C)C)cn4)c3)cnn2c1=O [Example 5, 3-(1-(5-(dimethylamino)pyrimidin-2-yl)-1H-pyrazol-4-yl)-6-ethyl-5-methylpyrazolo[1,5-a]pyrimidin-7(4H)-one] |
| 52.9 | CCc1c(C)[nH]c2c(-c3cnn(-c4nccc(N5CCCC5)n4)c3)cnn2c1=O [Example 6, 6-ethyl-5-methyl-3-(1-(4-(pyrrolidin-1-yl)pyrimidin-2-yl)-1H-pyrazol-4-yl)pyrazolo[1,5-a]pyrimidin-7(4H)-one] |
| 8.6 | CCc1c(C)[nH]c2c(-c3cnn(-c4nccc(OC)n4)c3)cnn2c1=O [Example 7, 6-ethyl-3-(1-(4-methoxypyrimidin-2-yl)-1H-pyrazol-4-yl)-5-methylpyrazolo[1,5-a]pyrimidin-7(4H)-one] |
| 136 | CCc1c(C)[nH]c2c(-c3cnn(-c4nccs4)c3)cnn2c1=O [Example 8, 6-ethyl-5-methyl-3-(1-(thiazol-2-yl)-1H-pyrazol-4-yl)pyrazolo[1,5-a]pyrimidin-7(4H)-one] |
| 16.6 | CCc1c(C)[nH]c2c(-c3cnn(-c4cc(C5CC5)ccn4)c3)cnn2c1=O [Example 9, 3-(1-(4-cyclopropylpyridin-2-yl)-1H-pyrazol-4-yl)-6-ethyl-5-methylpyrazolo[1,5-a]pyrimidin-7(4H)-one] |
| 201 | CCc1c(C)[nH]c2c(-c3cnn(-c4cc(C(=O)O)ccn4)c3)cnn2c1=O [Example 10, 2-(4-(6-ethyl-5-methyl-7-oxo-4,7-dihydropyrazolo[1,5-a]pyrimidin-3-yl)-1H-pyrazol-1-yl)isonicotinic acid] |
| 31.3 | CCc1c(C)[nH]c2c(-c3cnn(-c4ccc(CO)cn4)c3)cnn2c1=O [Example 12, 6-ethyl-3-(1-(5-(hydroxymethyl)pyridin-2-yl)-1H-pyrazol-4-yl)-5-methylpyrazolo[1,5-a]pyrimidin-7(4H)-one] |
| 66.1 | CCc1c(C)[nH]c2c(-c3cnn(-c4cc(Cl)ccn4)c3)cnn2c1=O [Example 13, 3-(1-(4-chloropyridin-2-yl)-1H-pyrazol-4-yl)-6-ethyl-5-methylpyrazolo[1,5-a]pyrimidin-7(4H)-one] |
| 16.5 | CCc1c(C)[nH]c2c(-c3cnn(-c4ncccn4)c3)cnn2c1=O [Example 14, 6-ethyl-5-methyl-3-(1-(pyrimidin-2-yl)-1H-pyrazol-4-yl)pyrazolo[1,5-a]pyrimidin-7(4H)-one] |
| 66.1 | CCc1c(C)[nH]c2c(-c3cnn(-c4cc(OC)ccn4)c3)cnn2c1=O [Example 15, 6-ethyl-3-(1-(4-methoxypyridin-2-yl)-1H-pyrazol-4-yl)-5-methylpyrazolo[1,5-a]pyrimidin-7(4H)-one] |
| 406 | CCc1c(C)[nH]c2c(-c3cnn(-c4cc(N(C)C)ccn4)c3)cnn2c1=O [Example 16, 3-(1-(4-(dimethylamino)pyridin-2-yl)-1H-pyrazol-4-yl)-6-ethyl-5-methylpyrazolo[1,5-a]pyrimidin-7(4H)-one] |
| 14.1 | CCc1c(C)[nH]c2c(-c3cnn(-c4cc(OCCO)ccn4)c3)cnn2c1=O [Example 17, 6-ethyl-3-(1-(4-(2-hydroxyethoxy)pyridin-2-yl)-1H-pyrazol-4-yl)-5-methylpyrazolo[1,5-a]pyrimidin-7(4H)-one] |
| 9.8 | CCc1c(C)[nH]c2c(-c3cnn(-c4cc(OCCN)ccn4)c3)cnn2c1=O [Example 18, 3-(1-(4-(2-aminoethoxy)pyridin-2-yl)-1H-pyrazol-4-yl)-6-ethyl-5-methylpyrazolo[1,5-a]pyrimidin-7(4H)-one] |
| 5.7 | Cc1[nH]c2c(-c3cnn(-c4ncccn4)c3)cnn2c(=O)c1C(C)C [Example 19, 6-isopropyl-5-methyl-3-(1-(pyrimidin-2-yl)-1H-pyrazol-4-yl)pyrazolo[1,5-a]pyrimidin-7(4H)-one] |
| 8.3 | Cc1[nH]c2c(-c3cnn(-c4ccccn4)c3)cnn2c(=O)c1C(C)C [Example 20, 6-isopropyl-5-methyl-3-(1-(pyridin-2-yl)-1H-pyrazol-4-yl)pyrazolo[1,5-a]pyrimidin-7(4H)-one] |

| IC50 [nM] | Compound |
| --- | --- |
| 9.1 | Cc1ccc(-n2cc(-c3cnn4c(=O)c(C(C)C)c(C)[nH]c34)cn2)nc1 [Example 21, 6-isopropyl-5-methyl-3-(1-(5-methylpyridin-2-yl)-1H-pyrazol-4-yl)pyrazolo[1,5-a]pyrimidin-7(4H)-one] |
| 23.6 | Cc1ccnc(-n2cc(-c3cnn4c(=O)c(C(C)C)c(C)[nH]c34)cn2)c1 [Example 22, 6-isopropyl-5-methyl-3-(1-(4-methylpyridin-2-yl)-1H-pyrazol-4-yl)pyrazolo[1,5-a]pyrimidin-7(4H)-one] |
| 54.3 | Cc1ccnc(-n2cc(-c3cnn4c(=O)c(C(C)C)c(C)[nH]c34)cn2)n1 [Example 23, 6-isopropyl-5-methyl-3-(1-(4-methylpyrimidin-2-yl)-1H-pyrazol-4-yl)pyrazolo[1,5-a]pyrimidin-7(4H)-one] |
| 16.6 | Cc1cnc(-n2cc(-c3cnn4c(=O)c(C(C)C)c(C)[nH]c34)cn2)nc1 [Example 24, 6-isopropyl-5-methyl-3-(1-(5-methylpyrimidin-2-yl)-1H-pyrazol-4-yl)pyrazolo[1,5-a]pyrimidin-7(4H)-one] |
| 6.6 | Cc1[nH]c2c(-c3cnn(-c4ccc(CO)cn4)c3)cnn2c(=O)c1C(C)C [Example 25, 3-(1-(5-(hydroxymethyl)pyridin-2-yl)-1H-pyrazol-4-yl)-6-isopropyl-5-methylpyrazolo[1,5-a]pyrimidin-7(4H)-one] |
| 13.4 | Cc1ccnc(-n2cc(-c3cnn4c(=O)c(C5CC5)c(C)[nH]c34)cn2)c1 [Example 28, 6-cyclopropyl-5-methyl-3-(1-(4-methylpyridin-2-yl)-1H-pyrazol-4-yl)pyrazolo[1,5-a]pyrimidin-7(6H)-one] |
| 18.5 | Cc1[nH]c2c(-c3cnn(-c4ncccn4)c3)cnn2c(=O)c1C1CC1 [Example 29, 6-cyclopropyl-5-methyl-3-(1-(pyrimidin-2-yl)-1H-pyrazol-4-yl)pyrazolo[1,5-a]pyrimidin-7(6H)-one] |
| 4.8 | Cc1ccnc(-n2cc(-c3cnn4c(=O)c(C5CC5)c(C)[nH]c34)cn2)n1 [Example 30, 6-cyclopropyl-5-methyl-3-(1-(4-methylpyrimidin-2-yl)-1H-pyrazol-4-yl)pyrazolo[1,5-a]pyrimidin-7(6H)-one] |
| 48.7 | Cc1cnc(-n2cc(-c3cnn4c(=O)c(C5CC5)c(C)[nH]c34)cn2)nc1 [Example 31, 6-cyclopropyl-5-methyl-3-(1-(5-methylpyrimidin-2-yl)-1H-pyrazol-4-yl)pyrazolo[1,5-a]pyrimidin-7(6H)-one] |
| 7.9 | Cc1[nH]c2c(-c3cnn(-c4ccc(CO)cn4)c3)cnn2c(=O)c1C1CC1 [Example 32, 6-cyclopropyl-3-(1-(5-(hydroxymethyl)pyridin-2-yl)-1H-pyrazol-4-yl)-5-methylpyrazolo[1,5-a]pyrimidin-7(6H)-one] |
| 196 | CCc1c(C)[nH]c2c(-c3cnn(C(C)=O)c3)cnn2c1=O [Example 33, 3-(1-acetyl-1H-pyrazol-4-yl)-6-ethyl-5-methylpyrazolo[1,5-a]pyrimidin-7(4H)-one] |
| 4180 | CCc1c(C)[nH]c2c(-c3cnn(C(=O)N(C)C)c3)cnn2c1=O [Example 34, 4-(6-ethyl-5-methyl-7-oxo-4,7-dihydropyrazolo[1,5-a]pyrimidin-3-yl)-N,N-dimethyl-1H-pyrazole-1-carboxamide] |
| 543 | CCc1c(C)[nH]c2c(-c3cnn(C(=O)C(C)(C)C)c3)cnn2c1=O [Example 35, 6-ethyl-5-methyl-3-(1-pivaloyl-1H-pyrazol-4-yl)pyrazolo[1,5-a]pyrimidin-7(4H)-one] |
| 1000 | CCc1c(C)[nH]c2c(-c3cnn(C(=O)OC)c3)cnn2c1=O [Example 36, Methyl 4-(6-ethyl-5-methyl-7-oxo-4,7-dihydropyrazolo[1,5-a]pyrimidin-3-yl)-1H-pyrazole-1-carboxylate] |
| 335 | CCc1[nH]c2c(-c3cnn(-c4ccccn4)c3)cnn2c(=O)c1C [Example 37, 5-ethyl-6-methyl-3-(1-(pyridin-2-yl)-1H-pyrazol-4-yl)pyrazolo[1,5-a]pyrimidin-7(4H)-one] |
| 1000 | Cc1c(C(C)C)[nH]c2c(-c3cnn(-c4ccccn4)c3)cnn2c1=O [Example 38, 5-isopropyl-6-methyl-3-(1-(pyridin-2-yl)-1H-pyrazol-4-yl)pyrazolo[1,5-a]pyrimidin-7(4H)-one] |
| 624 | Cc1c(C2CC2)[nH]c2c(-c3cnn(-c4ccccn4)c3)cnn2c1=O [Example 39, 5-cyclopropyl-6-methyl-3-(1-(pyridin-2-yl)-1H-pyrazol-4-yl)pyrazolo[1,5-a]pyrimidin-7(4H)-one] |
| 101 | COc1c(C)[nH]c2c(-c3cnn(-c4ccccn4)c3)cnn2c1=O [Example 40, 6-methoxy-5-methyl-3-(1-(pyridin-2-yl)-1H-pyrazol-4-yl)pyrazolo[1,5-a]pyrimidin-7(4H)-one] |

| Compound | IC50 [nM] |
| --- | --- |
| CCc1c(C)[nH]c2c(-c3cnn(-c4cc(CO)ccn4)c3)cnn2c1=O [Example 11, 6-ethyl-3-(1-(4-(hydroxymethyl)pyridin-2-yl)-1H-pyrazol-4-yl)-5-methylpyrazolo[1,5-a]pyrimidin-7(4H)-one] | 2.3 |

Reference: US9505767B2, “Pyrazolo[1,5-A]pyrimidin-7(4H)-onehistone demethylase inhibitors” (Genentech, Inc., priority 2013, dated 2016)
